# Assay results as given in patent US20030022158A1, “Peptides from the TT virus sequence and monospecific antibodies binding to the TT virus” (priority 1999, published 2003).
# Columns and labels:
# [1] = system: anti-TTV antibodies present in human serum; assay: Inhibition of serum reactivity to plate-bound peptide by peptide in solution; format: binding; conditions: peptide SEQ ID NO: 1 on the microplate
# [2] = system: human antibodies in human serum samples P4, P6, P7; assay: EIA reactivities of serial dilutions of three human serum samples with TTV peptide SEQ ID NO: 1 (Table 5); format: binding
# Experimental: The EIAs used to identify which peptides interacted with human sera followed protocols known in the art. (See Zhang et al., J Gen Virol, 78:2735-2746 (1997), herein expressly incorporated by reference in its entirety). Briefly, microplates (Nunc, Denmark) were coated for 48 hours with synthetic peptides at a concentration of 10 μg/ml in 0.05M sodium carbonate buffer pH 9.6. […] Bound human IgG was detected by incubation with anti-human IgG antibodies conjugated to alkaline phosphatase (Sigma Chemicals, St. Louis, Mo.). The plates were developed by the addition of […] (Sigma) and the optical densities were determined at 405 nm.
# [3] = system: human IgG antibodies in human serum samples; assay: EIA of human antibody reactivities to overlapping synthetic peptides of TTV ORF1 and ORF2 (Tables 2 and 3); format: binding; conditions: for reactivity with serum samples from patients with TTV infection: eight samples with TTV infection; for optical density (OD) at 405 nm: serum diluted 1:100, OD over 0.500 considered positive
# Summary of the method: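 Human serum diluted 1:100 was tested for IgG binding to 18-residue overlapping TTV peptides coated at 10 μg/ml (pH 9.6 carbonate, 48 h). Blocking buffer held BSA, goat serum and Tween 20. Alkaline phosphatase anti-human IgG gave a signal measured as OD at 405 nm.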
# [4] = system: human antibodies in human serum samples; assay: EIA reactivities of three human serum samples with deletion and alanine substitution analogues of SEQ ID NO: 1 (Table 6); format: binding; conditions: positive = more than 50% of the reactivity of the original peptide
# Summary of the method: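 Plates coated 48 hours with synthetic peptides at 10 μg/ml in carbonate buffer pH 9.6, blocked, then incubated with human sera diluted 1:100. Bound human IgG detected with alkaline phosphatase anti-human IgG; OD read at 405 nm, mapping deletion and alanine-substitution analogues of SEQ ID NO: 1.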
# Balb/c mice = assay: Immunization of Balb/c mice with TTV peptide 35, anti-peptide antibody titers; format: in vivo, mouse; conditions: five Balb/c mice, 100 μg intra-peritoneally in complete Freund's adjuvant, booster week four
# Experimental: A total of five Balb/c mice were immunized intra-peritoneally with 100 μg of TTV peptide 35 (SEQ ID NO: 1) emulsified 1:1 in complete Freund's adjuvant. Venous blood samples were obtained on weeks 2, 4, and 6. A booster dose of 100 μg in incomplete Freund's adjuvant was given on week four. […] The anti-peptide titers were 1:60 at week 4 and 1:2160 at week 6. […] The following section describes more on the production of antibodies specific for TTV.
# [5] = human serum sample 1, negative for TTV DNA by PCR
# [6] = human serum sample 2, negative for TTV DNA by PCR
# [7] = human serum sample 3, negative for TTV DNA by PCR
# [8] = human serum sample 4, negative for TTV DNA by PCR
# [9] = human serum sample 5, negative for TTV DNA by PCR
# [10] = human serum sample 6, negative for TTV DNA by PCR
# [11] = human serum sample 7, negative for TTV DNA by PCR
# [12] = human serum sample 9, positive for TTV DNA by PCR
# [13] = human serum sample 11, negative for TTV DNA by PCR
# [14] = human serum sample 18, positive for TTV DNA by PCR
# [15] = human serum sample 36, positive for TTV DNA by PCR
# [16] = human serum sample 48, positive for TTV DNA by PCR
# [17] = human serum sample 98, positive for TTV DNA by PCR
# [18] = human serum sample 110, positive for TTV DNA by PCR
# [19] = human serum sample 155, positive for TTV DNA by PCR
# [20] = human serum sample 157, positive for TTV DNA by PCR
substance,measurement,setting,value
"TATTTTYAYPGTNRPPV (Peptide Immunogen) [peptide 35, overlapping synthetic peptide of TTV ORF1]",inhibition of serum reactivity to the peptide on the microplate by peptide in solution,[1],inhibited
same,OD at 405 nm,"[2]; human serum sample P4, dilution of serum sample 1:100",1.285 OD
same,OD at 405 nm,"[2]; human serum sample P4, dilution of serum sample 1:200",0.758 OD
same,OD at 405 nm,"[2]; human serum sample P4, dilution of serum sample 1:400",0.411 OD
same,OD at 405 nm,"[2]; human serum sample P4, dilution of serum sample 1:800",0.234 OD
same,OD at 405 nm,"[2]; human serum sample P4, dilution of serum sample 1:1600",0.131 OD
same,OD at 405 nm,"[2]; human serum sample P4, dilution of serum sample 1:3200",0.076 OD
same,OD at 405 nm,"[2]; human serum sample P4, dilution of serum sample 1:6400",0.058 OD
same,OD at 405 nm,"[2]; human serum sample P4, dilution of serum sample 1:12800",0.046 OD
same,OD at 405 nm,"[2]; human serum sample P6, dilution of serum sample 1:100",0.687 OD
same,OD at 405 nm,"[2]; human serum sample P6, dilution of serum sample 1:200",0.375 OD
same,OD at 405 nm,"[2]; human serum sample P6, dilution of serum sample 1:400",0.19 OD
same,OD at 405 nm,"[2]; human serum sample P6, dilution of serum sample 1:800",0.104 OD
same,OD at 405 nm,"[2]; human serum sample P6, dilution of serum sample 1:1600",0.067 OD
same,OD at 405 nm,"[2]; human serum sample P6, dilution of serum sample 1:3200",0.049 OD
same,OD at 405 nm,"[2]; human serum sample P6, dilution of serum sample 1:6400",0.043 OD
same,OD at 405 nm,"[2]; human serum sample P6, dilution of serum sample 1:12800",0.041 OD
same,OD at 405 nm,"[2]; human serum sample P7, dilution of serum sample 1:100",1.782 OD
same,OD at 405 nm,"[2]; human serum sample P7, dilution of serum sample 1:200",1.23 OD
same,OD at 405 nm,"[2]; human serum sample P7, dilution of serum sample 1:400",0.79 OD
same,OD at 405 nm,"[2]; human serum sample P7, dilution of serum sample 1:800",0.45 OD
same,OD at 405 nm,"[2]; human serum sample P7, dilution of serum sample 1:1600",0.246 OD
same,OD at 405 nm,"[2]; human serum sample P7, dilution of serum sample 1:3200",0.131 OD
same,OD at 405 nm,"[2]; human serum sample P7, dilution of serum sample 1:6400",0.087 OD
same,OD at 405 nm,"[2]; human serum sample P7, dilution of serum sample 1:12800",0.061 OD
same,dependence of reactivity on serum dilution,[2]; serial dilutions of serum samples,dependent on the dilution of the serum samples
same,reactivity with serum samples from patients with TTV infection,[3]; EIA,reactive to most of the TTV infected serum samples
same,reactivity with serum samples from patients with TTV infection,"[3]; EIA, listed as TATTTTYAYPGTNRPPV",Every sample from patients with TTV infection was found to be reactive
same,optical density (OD) at 405 nm,[3]; [5],0.18 OD
same,optical density (OD) at 405 nm,[3]; [6],0.17 OD
same,optical density (OD) at 405 nm,[3]; [7],0.27 OD
same,optical density (OD) at 405 nm,[3]; [8],1.40 OD
same,optical density (OD) at 405 nm,[3]; [9],0.25 OD
same,optical density (OD) at 405 nm,[3]; [10],0.64 OD
same,optical density (OD) at 405 nm,[3]; [11],2.10 OD
same,optical density (OD) at 405 nm,[3]; [12],0.10 OD
same,optical density (OD) at 405 nm,[3]; [13],0.64 OD
same,optical density (OD) at 405 nm,[3]; [14],0.10 OD
same,optical density (OD) at 405 nm,[3]; [15],1.22 OD
same,optical density (OD) at 405 nm,[3]; [16],1.11 OD
same,optical density (OD) at 405 nm,[3]; [17],0.05 OD
same,optical density (OD) at 405 nm,[3]; [18],0.47 OD
same,optical density (OD) at 405 nm,[3]; [19],0.95 OD
same,optical density (OD) at 405 nm,[3]; [20],0.86 OD
same,human reactivity to peptide (reactive peptides within ORF1),"[3]; tested human sera, EIA",Reactive
same,"OD at 405 nm, reactivity of human serum sample P4",[4],0.748 OD
same,"OD at 405 nm, reactivity of human serum sample P7",[4],1.659 OD
same,"OD at 405 nm, reactivity of human serum sample P36",[4],0.722 OD
same,mice developing detectable peptide-specific antibodies,Balb/c mice,one developed detectable antibodies
peptide 1: overlapping synthetic peptide of TTV ORF1 (TATTTTYAYPGTNRPPV),optical density (OD) at 405 nm,[3]; [5],0.00 OD
same,optical density (OD) at 405 nm,[3]; [6],0.00 OD
same,optical density (OD) at 405 nm,[3]; [7],0.00 OD
same,optical density (OD) at 405 nm,[3]; [8],0.00 OD
same,optical density (OD) at 405 nm,[3]; [9],0.00 OD
same,optical density (OD) at 405 nm,[3]; [10],0.00 OD
same,optical density (OD) at 405 nm,[3]; [11],0.00 OD
same,optical density (OD) at 405 nm,[3]; [12],0.00 OD
same,optical density (OD) at 405 nm,[3]; [13],0.00 OD
same,optical density (OD) at 405 nm,[3]; [14],0.00 OD
same,optical density (OD) at 405 nm,[3]; [15],0.00 OD
same,optical density (OD) at 405 nm,[3]; [16],0.00 OD
same,optical density (OD) at 405 nm,[3]; [17],0.00 OD
same,optical density (OD) at 405 nm,[3]; [18],0.00 OD
same,optical density (OD) at 405 nm,[3]; [19],0.00 OD
same,optical density (OD) at 405 nm,[3]; [20],0.00 OD
same,"optical density (OD) at 405 nm, EIA reactivity of human serum sample 1","[3]; serum sample 1, negative for TTV DNA by PCR, serum 1:100, peptide coated 10 μg/ml, OD over 0.500 positive",0.09 OD
same,"optical density (OD) at 405 nm, EIA reactivity of human serum sample 2","[3]; serum sample 2, negative for TTV DNA by PCR, serum 1:100, peptide coated 10 μg/ml, OD over 0.500 positive",0.10 OD
same,"optical density (OD) at 405 nm, EIA reactivity of human serum sample 3","[3]; serum sample 3, negative for TTV DNA by PCR, serum 1:100, peptide coated 10 μg/ml, OD over 0.500 positive",0.13 OD
same,"optical density (OD) at 405 nm, EIA reactivity of human serum sample 4","[3]; serum sample 4, negative for TTV DNA by PCR, serum 1:100, peptide coated 10 μg/ml, OD over 0.500 positive",0.11 OD
same,"optical density (OD) at 405 nm, EIA reactivity of human serum sample 5","[3]; serum sample 5, negative for TTV DNA by PCR, serum 1:100, peptide coated 10 μg/ml, OD over 0.500 positive",0.10 OD
same,"optical density (OD) at 405 nm, EIA reactivity of human serum sample 6","[3]; serum sample 6, negative for TTV DNA by PCR, serum 1:100, peptide coated 10 μg/ml, OD over 0.500 positive",0.16 OD
same,"optical density (OD) at 405 nm, EIA reactivity of human serum sample 7","[3]; serum sample 7, negative for TTV DNA by PCR, serum 1:100, peptide coated 10 μg/ml, OD over 0.500 positive",0.09 OD
same,"optical density (OD) at 405 nm, EIA reactivity of human serum sample 9","[3]; serum sample 9, positive for TTV DNA by PCR, serum 1:100, peptide coated 10 μg/ml, OD over 0.500 positive",0.08 OD
same,"optical density (OD) at 405 nm, EIA reactivity of human serum sample 11","[3]; serum sample 11, negative for TTV DNA by PCR, serum 1:100, peptide coated 10 μg/ml, OD over 0.500 positive",0.12 OD
same,"optical density (OD) at 405 nm, EIA reactivity of human serum sample 18","[3]; serum sample 18, positive for TTV DNA by PCR, serum 1:100, peptide coated 10 μg/ml, OD over 0.500 positive",0.08 OD
same,"optical density (OD) at 405 nm, EIA reactivity of human serum sample 36","[3]; serum sample 36, positive for TTV DNA by PCR, serum 1:100, peptide coated 10 μg/ml, OD over 0.500 positive",0.09 OD
same,"optical density (OD) at 405 nm, EIA reactivity of human serum sample 48","[3]; serum sample 48, positive for TTV DNA by PCR, serum 1:100, peptide coated 10 μg/ml, OD over 0.500 positive",0.08 OD
same,"optical density (OD) at 405 nm, EIA reactivity of human serum sample 98","[3]; serum sample 98, positive for TTV DNA by PCR, serum 1:100, peptide coated 10 μg/ml, OD over 0.500 positive",0.08 OD
same,"optical density (OD) at 405 nm, EIA reactivity of human serum sample 110","[3]; serum sample 110, positive for TTV DNA by PCR, serum 1:100, peptide coated 10 μg/ml, OD over 0.500 positive",0.08 OD
same,"optical density (OD) at 405 nm, EIA reactivity of human serum sample 155","[3]; serum sample 155, positive for TTV DNA by PCR, serum 1:100, peptide coated 10 μg/ml, OD over 0.500 positive",0.14 OD
same,"optical density (OD) at 405 nm, EIA reactivity of human serum sample 157","[3]; serum sample 157, positive for TTV DNA by PCR, serum 1:100, peptide coated 10 μg/ml, OD over 0.500 positive",0.14 OD
same,"OD at 405 nm, reactivity of human serum sample P4",[4],0.839 OD
same,"OD at 405 nm, reactivity of human serum sample P7",[4],1.845 OD
same,"OD at 405 nm, reactivity of human serum sample P36",[4],0.825 OD
